Literature values in patent publication US20100021879A1, “COMPOSITIONS AND METHODS FOR PRESERVING RED BLOOD CELLS” (THE REGENTS OF THE UNIVERSITY OF MICHIGAN, priority 2007, published 2010).

Columns and labels:
erythrocyte = conditions: prior to hemolysis

Row | Structure (SMILES) | red blood cell deformability (red blood cells) | K leak (erythrocyte) | erythrocyte deformability evidenced by ektacytometry (erythrocyte)
1 | CC[N+](CC)(CC)CC [TEA] | increased deformability |  | 
2 | OCl [hypochlorous acid] |  | increase in K leak | changes in erythrocyte deformability
